Test results as given in US11679095B2, “Macrophages/microglia in neuro-inflammation associated with neurodegenerative diseases” (The General Hospital Corporation, priority 2016, dated 2023).
Entries after “also recorded” stand apart in the source; their conditions may differ. Each block holds one compound with its values, some of them ahead of it.

Assays:
[1] = Solubility in DMSO (stock solutions); format: physicochemical; conditions: in comparison to the other compounds / earlier aliquot
Procedure: Therefore, a 25 mM stock solutions for all the compounds except for C3 and C4 were prepared. The stock solutions for C3 and C4 were prepared at 5 mM and 7.5 mM, respectively. C1 is the parent compound—cromolyn disodium.

[2] = tested on: naïve BV2 microglial cells; assay: Aβ42 uptake ELISA, 3 h cromolyn derivative treatment, naïve BV2; format: cell-based; conditions: 3 hours + 2 hours
Procedure: (§1) To investigate the effect of cromolyn derivatives on Aβ42 uptake in microglia, naïve BV2 or BV2-CD33^WT cells were plated in proliferating media. On the following day, cells were treated with DMSO (control) or the compounds at different concentrations in proliferating media for 3 hours. […] Afterwards, cells were washed with PBS and treated with DMSO or compounds in the presence of the untagged Aβ42 peptide (400 nM) in DMEM media for 2 hours. Compound toxicity was assessed in the media collected at the end of the treatment with CytoTox-ONE™ lactate dehydrogenase (LDH) assay. The remaining cells in the plate were washed with cold PBS and lysed with RIPA buffer supplemented with protease and phosphatase inhibitors. Protein concentrations in the lysate supernatants were determined using the Pierce™ BCA protein assay kit and 2-3 μg/well of total protein from each lysate was analyzed for Aβ42 uptake using the Aβ42 ELISA kit from Wako. Toxic compound concentrations were excluded from further studies.
To test whether cromolyn derivatives modulate Aβ42 uptake, naïve BV2 microglial cells were treated with DMSO (control) or cromolyn derivative compounds at different concentrations for 3 hours. Afterwards, the cells were washed and treated with DMSO or compounds in the presence of untagged Aβ42 peptide for 2 hours. At the end of the treatment, the cell lysates were collected. […]

BV2-CD33^WT cells = assay: Aβ42 uptake ELISA, 3 h cromolyn derivative treatment, BV2-CD33^WT; format: cell-based
Procedure: as §1
Further, whether cromolyn derivatives impact Aβ42 uptake and clearance in BV2-CD33^WT cells was determined by two independent sets of experiments. BV2-CD33^WT cells were treated with DMSO (control) or cromolyn derivatives at different concentrations ranging between 5 and 150 μM.
The compound C2 was tested with other cromolyn derivatives in the second set of experiments.

[3] = tested on: naïve BV2 microglial cells; assay: CytoTox-ONE lactate dehydrogenase (LDH) toxicity assay; format: cell-based; conditions: 3 hours + 2 hours with Aβ42
Procedure: On the following day, cells were treated with DMSO (control) or the compounds at different concentrations in proliferating media for 3 hours. […] Afterwards, cells were washed with PBS and treated with DMSO or compounds in the presence of the untagged Aβ42 peptide (400 nM) in DMEM media for 2 hours. Compound toxicity was assessed in the media collected at the end of the treatment with CytoTox-ONETM lactate dehydrogenase (LDH) assay. The remaining cells in the plate were washed with cold PBS and lysed with RIPA buffer supplemented with protease and phosphatase inhibitors. […] Toxic compound concentrations were excluded from further studies. To investigate whether cromolyn derivatives induce cytotoxicity at higher doses, naïve BV2 microglial cells were incubated with DMSO (vehicle) or cromolyn derivatives at different concentrations for 3 hours. The cells were then washed and incubated with DMSO or compounds and soluble untagged Aβ42 for additional 2 hours. Afterwards, the cell media was collected and measured LDH released by the damaged cells to identify the compounds that induce cytolysis.

BV2 microglial cells = assay: Aβ42 uptake in BV2 microglial cell cultures, cromolyn and/or ibuprofen (ELISA); format: cell-based; conditions: 10 μM, 100 μM, 1 mM; 16 hours, then 3 hours with soluble Aβ42
Procedure: BV2 microglial cell cultures were treated with cromolyn and/or ibuprofen (10 μM, 100 μM, 1 mM) for 16 hours. Afterwards, cells were incubated with soluble Aβ42 and the compounds for 3 hours. After incubation, cells were collected for ELISA analysis. […] Results were derived from three independent experiments; **p<0.01, ***p<0.001, one-way ANOVA, Tukey's test). Data are represented as mean±SEM.

Compound: O=C(O)c1cc(=O)c2c(OCC(O)COc3cccc4oc(C(=O)O)cc(=O)c34)cccc2o1 [C1, Cromolyn Disodium, reference compound]
solubility in DMSO [1]: lower solubility in DMSO

Compound: O=c1cc(CO)oc2cccc(OCC(F)COc3cccc4oc(CO)cc(=O)c34)c12 [C6]
Aβ42 uptake ([2]; different concentrations): robust inhibition of Aβ42 uptake
Aβ42 uptake (BV2-CD33^WT cells; different concentrations, first set of experiments, vs DMSO): dose-dependent effect in mediating inhibition of Aβ42 uptake

Compound: CC(C)(C)C(=O)OCOC(=O)c1cc(=O)c2c(OCC(O)COc3cccc4oc(C(=O)OCOC(=O)C(C)(C)C)cc(=O)c34)cccc2o1 [C8]
toxicity (LDH released) ([3]; 100 and 150 μM, vs DMSO): showing toxicity; also recorded: increased toxicity
concentration at which toxicity is displayed in LDH assay [3]: ≥ 100 µM

Compound: CC(C)Cc1ccc(C(C)C(=O)O)cc1 (stereo not shown) [ibuprofen]
microglial Aβ42 uptake (BV2 microglial cells): not ibuprofen promotes microglial Aβ42 uptake

Further lines, with some results ahead:

solubility in DMSO [1]: lower solubility in DMSO
Compound: CCOC(=O)c1cc(=O)c2c(OCC(O)COc3cccc4oc(C(=O)OCC)cc(=O)c34)cccc2o1 [C3]

IC50 (BV2-CD33^WT cells; GraphPad Prism 7, first set of experiments): 54.7 µM
solubility in DMSO [1]: lower solubility in DMSO
Compound: CCOC(=O)c1cc(=O)c2c(OCC(F)COc3cccc4oc(C(=O)OCC)cc(=O)c34)cccc2o1 [C4]
Aβ42 uptake ([2]; 75 μM, vs vehicle): increased uptake of Aβ42 peptide; also recorded: significantly increased Aβ42 uptake levels
Aβ42 uptake (BV2-CD33^WT cells; 50 μM, first set of experiments): dose-dependent effect
Aβ42 uptake in comparison to DMSO (BV2-CD33^WT cells; 75 μM, first set of experiments): two-fold increase; also recorded: increased uptake of Aβ42
Aβ42 uptake (BV2-CD33^WT cells; 75 μM, second set of experiments): most effective in increasing the Aβ42 uptake
Aβ42 uptake (BV2-CD33^WT cells; 50 and 75 μM, second set of experiments, vs DMSO): effectively induced Aβ42 uptake
CD33-mediated inhibition of Aβ uptake and clearance (BV2-CD33^WT cells; both sets of experiments): reversed the CD33-mediated inhibition of Aβ uptake and clearance
Aβ42 uptake (BV2-CD33^WT cells; lower concentrations, second set of experiments, vs DMSO): dose-dependent effect at lower concentrations
